# Results from patent US8012998B2, “Pyrrolidine aryl-ether as NK-3 receptor antagonists” (Hoffmann—LA Roche Inc., priority 2007, dated 2011).
# Test system: not given
# Test: not given
# Conditions: phase II trial; negative symptoms (depression, anhedonia, social isolation, memory and attention deficits); cited from earlier work
row,SMILES,activity in the treatment of negative symptoms of schizophrenia
1,"CC(=O)N(C)C1(c2ccccc2)CCN(CCC[C@]2(c3ccc(Cl)c(Cl)c3)CCCN(C(=O)c3ccccc3)C2)CC1 [SR 142,801, Osanetant]",inactive

# Same assay, conditions: phase II trial; positive symptoms (altered behaviour, delusion, hallucinations, extreme emotions, excited motor activity, incoherent speech); cited from earlier work
row,SMILES,activity on positive symptoms of schizophrenia
1,"CC(=O)N(C)C1(c2ccccc2)CCN(CCC[C@]2(c3ccc(Cl)c(Cl)c3)CCCN(C(=O)c3ccccc3)C2)CC1 [SR 142,801, Osanetant]",active

# Biological target: T1, human NK3 receptor (Homo sapiens, UniProt P29371)
# T1 construct: expressed in transfected cells; host or cells: HEK293 cells (transient expression), membrane preparation
# T1 sequence (P29371 1-465): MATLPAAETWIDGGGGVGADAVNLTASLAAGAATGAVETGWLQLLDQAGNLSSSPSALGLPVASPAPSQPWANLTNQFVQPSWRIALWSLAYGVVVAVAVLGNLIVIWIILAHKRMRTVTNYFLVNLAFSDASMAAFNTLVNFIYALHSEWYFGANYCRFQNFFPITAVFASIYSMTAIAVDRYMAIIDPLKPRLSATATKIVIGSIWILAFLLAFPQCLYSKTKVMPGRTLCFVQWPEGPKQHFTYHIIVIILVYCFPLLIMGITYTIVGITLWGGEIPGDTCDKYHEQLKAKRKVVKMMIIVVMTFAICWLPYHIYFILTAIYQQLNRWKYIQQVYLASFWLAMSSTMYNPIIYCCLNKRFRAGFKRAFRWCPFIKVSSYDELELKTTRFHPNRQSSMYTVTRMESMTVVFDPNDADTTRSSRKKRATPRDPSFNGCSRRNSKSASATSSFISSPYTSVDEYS
# Test: [3H]SR142801 competition binding assay (hNK3 receptor binding)
# Conditions: [3H]SR142801 radioligand; membranes from HEK293 cells transiently expressing recombinant human NK3 receptor; Ki by Cheng-Prussoff; read-out: KiNK3 h
# Method in brief: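 Competition binding with [3H]SR142801 on membranes of HEK293 cells transiently expressing human NK3, 5 μg protein/well, in Tris-HCl/MnCl2/phosphoramidon/BSA buffer pH 7.4. Nonspecific binding defined with 10 μM SB222200; filtration then scintillation counting. IC50 from Hill fit was converted to Ki by Cheng-Prusoff; duplicate, mean ± SEM.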
row,Ki [µM],SMILES
1,0.0014,"Cc1nc(-c2ccc(C(=O)N3C[C@H]([C@H](C)Oc4ccc(C#N)cn4)[C@@H](c4ccc(Cl)c(Cl)c4)C3)cc2)no1 (racemic) [Example 61, 6-((SR)-1-{(3RS,4SR)-4-(3,4-Dichloro-phenyl)-1-[4-(5-methyl-[1,2,4]oxadiazol-3-yl)-benzoyl]-pyrrolidin-3-yl}-ethoxy)-nicotinonitrile]"
2,0.0914,"Cc1ncc(C(=O)N2C[C@H]([C@H](C)Oc3ccc(C#N)cn3)[C@@H](c3ccc(F)c(Cl)c3)C2)cn1 [Example 102, 6-{(S)-1-[(3R,4S)-4-(3-Chloro-4-fluoro-phenyl)-1-(2-methyl-pyrimidine-5-carbonyl)-pyrrolidin-3-yl]-ethoxy}-nicotinonitrile]"
3,0.0019,"C[C@@H](Oc1ccc(Cl)cn1)[C@@H]1CN(C(=O)c2ccc(CCN3CCCC3)nc2)C[C@H]1c1ccc(Cl)c(Cl)c1 (racemic) [Example 46, [(3SR,4RS)-3-[(RS)-1-(5-Chloro-pyridin-2-yloxy)-ethyl]-4-(3,4-dichloro-phenyl)-pyrrolidin-1-yl]-[6-(2-pyrrolidin-1-yl-ethyl)-pyridin-3-yl]-methanone]"
4,0.0278,"C[C@@H](Oc1ccc(Cl)cn1)[C@@H]1CN(C(=O)c2ccc(F)nc2)C[C@H]1c1ccc(Cl)c(Cl)c1 (racemic) [Example 14, [(3SR,4RS)-3-[(RS)-1-(5-Chloro-pyridin-2-yloxy)-ethyl]-4-(3,4-dichloro-phenyl)-pyrrolidin-1-yl]-(6-fluoro-pyridin-3-yl)-methanone]"
5,0.0118,"C[C@@H](Oc1ccc(Cl)cn1)[C@@H]1CN(C(=O)c2ccc(CCN(C)C)cc2)C[C@H]1c1ccc(Cl)c(Cl)c1 [Example 44, [(3S,4R)-3-[(R)-1-(5-Chloro-pyridin-2-yloxy)-ethyl]-4-(3,4-dichloro-phenyl)-pyrrolidin-1-yl]-[4-(2-dimethylamino-ethyl)-phenyl]-methanone]"
6,0.0028,"Cc1cc(C(=O)N2C[C@H]([C@H](C)Oc3ccc(Cl)cn3)[C@@H](c3ccc(Cl)cc3)C2)cnn1 [Example 108, {(3S,4R)-3-(4-Chloro-phenyl)-4-[(S)-1-(5-chloro-pyridin-2-yloxy)-ethyl]-pyrrolidin-1-yl}-(6-methyl-pyridazin-4-yl)-methanone]"
7,0.084,"Cc1ncc(C(=O)N2C[C@H]([C@H](C)Oc3ccc(C#N)cn3)[C@@H](c3ccc(Cl)c(Cl)c3)C2)c(C)n1 (racemic) [Example 36, 6-{(SR)-1-[(3RS,4SR)-4-(3,4-Dichloro-phenyl)-1-(2,4-dimethyl-pyrimidine-5-carbonyl)-pyrrolidin-3-yl]-ethoxy}-nicotinonitrile]"
8,0.0272,"Cc1cc(C(=O)N2C[C@H]([C@H](C)Oc3ccc(C#N)cn3)[C@@H](c3ccc(Cl)c(Cl)c3)C2)c(Cl)nn1 (racemic) [Example 78, 6-{(SR)-1-[(3RS,4SR)-1-(3-Chloro-6-methyl-pyridazine-4-carbonyl)-4-(3,4-dichloro-phenyl)-pyrrolidin-3-yl]-ethoxy}-nicotinonitrile]"
9,0.0316,Cc1ncc(C(=O)N2C[C@@H]([C@@H](C)Oc3ccc(Cl)cn3)[C@@H](c3ccc(Cl)c(Cl)c3)C2)c(C)n1 (racemic) [Example 37]
10,0.022,"C[C@H](Oc1ccc(C#N)cn1)[C@H]1CN(C(=O)c2cnc(C3CC3)nc2)C[C@@H]1c1ccc(Cl)c(Cl)c1 [Example 84, 6-{(S)-1[-(3R,4S)-1-(2-Cyclopropyl-pyrimidine-5-carbonyl)-4-(3,4-dichloro-phenyl)-pyrrolidin-3-yl]-ethoxy}-nicotinonitrile]"
11,0.0046,"C[C@@H](Oc1ccc(Cl)cn1)[C@@H]1CN(C(=O)c2cnc(C#N)nc2)C[C@H]1c1ccc(Cl)c(Cl)c1 [Example 50, 5-[(3S,4R)-3-[(R)-1-(5-Chloro-pyridin-2-yloxy)-ethyl]-4-(3,4-dichloro-phenyl)-pyrrolidine-1-carbonyl]-pyrimidine-2-carbonitrile]"
